{"source": "a melting point compilation (Tetko et al.; mined from patent text by program, amines drawn as free bases though some values may be those of a salt)", "data": [{"units": {"melting point": "°C"}, "values": [{"smiles": "Cc1ccc2c(c1)C1(COc3cc4c(cc31)OCO4)C(=O)N2", "note": "(configuration not stated)", "melting point": "269 to 271"}, {"smiles": "CCOC(=O)C(=Cc1cccn2cc(C(C)(C)C)nc12)N=[N+]=[N-]", "melting point": "108 to 110"}, {"smiles": "C#CCN(Cc1cc2c(=O)n(C)c(CN3CCOCC3)nc2cc1Cl)c1ccc(C(=O)OC(C)(C)C)cc1", "melting point": "140 to 143"}, {"smiles": "Cc1cccc(C(=O)Nc2c[nH]nc2C(=O)NCCC(=O)O)n1", "melting point": "246 to 247"}, {"smiles": "CCCCCCCCCCCCCCOc1ccc(C(=O)O)s1", "melting point": "95 to 96"}, {"smiles": "CCc1nc(C)c(CC(=O)O)c(=O)n1Cc1ccc(-c2ccccc2-c2nnn[nH]2)cc1", "melting point": "325 to 329"}, {"smiles": "CCCCCCC(O)CNCCCCCCNCC(O)CCCCCC", "note": "(configuration not stated)", "melting point": "124 to 127"}, {"smiles": "O=C(Nc1ccc(OC(F)(F)F)cc1)NC1CCN(C(=O)Cc2ccccn2)CC1", "melting point": "183 to 187"}, {"smiles": "COC(=O)c1ccc(Cl)c(C2(O)C(=O)N(Cc3ccc(OC)cc3OC)c3ccc(Cl)cc32)c1", "note": "(configuration not stated)", "melting point": 56}, {"smiles": "COC(=O)C(=O)c1cn2c3c(cccc13)C(Br)CC2", "note": "(configuration not stated)", "melting point": "120 to 122"}, {"smiles": "COc1c(C(O)CNC(C)(C)Cc2c(C)cc(C)cc2C)ccc(O)c1O", "note": "(configuration not stated)", "melting point": "98 to 105"}, {"smiles": "O=C(Cc1ccccc1)N1CCc2[nH]c(=O)n3nc(-c4ccccc4F)nc3c2C1", "melting point": "310 to 313"}, {"smiles": "CCOc1cc(OCC(=O)OCc2ccccc2)cc2c1C(=O)N(COC(=O)c1c(Cl)cccc1Cl)S2(=O)=O", "melting point": "157 to 158"}, {"smiles": "CSc1nnc(COc2cc(C(C)(C)C)c(O)c(C(C)(C)C)c2)s1", "melting point": "128 to 130"}, {"smiles": "Cc1cccc(-c2c(CBr)n(C)c(=O)n(C)c2=O)c1", "melting point": "136 to 137"}, {"smiles": "CC(C)(C)NCC(O)COc1ccc(-c2csnn2)cc1", "note": "(configuration not stated)", "melting point": "124 to 125"}, {"smiles": "CC12CCC3c4ccc(O)cc4CC(Sc4ccc(O)cc4)C3C1CCC2O", "note": "(configuration not stated)", "melting point": "140 to 145"}, {"smiles": "C[C@@H](N)CN(c1ccccn1)S(=O)(=O)O", "melting point": "176 to 179"}, {"smiles": "O=C1N=C(NN2CCCC2)SC1=Cc1cccc(-c2cc(F)c(O)c(C34CC5CC(CC(C5)C3)C4)c2)c1", "melting point": "293 to 296"}, {"smiles": "Cn1c(Sc2ccc(C(=O)OCC(C)(C)C)c(Cl)c2)n[nH]c1=O", "melting point": 138}, {"smiles": "Cc1ncc(CN2CC=C(C#Cc3ccccc3)CC2)c(N)n1", "melting point": "187 to 188"}, {"smiles": "CCN(Cc1cc(Br)ccc1OCc1ccccc1)c1ncc(C(=O)NS(=O)(=O)c2ccccc2)s1", "melting point": "140 to 145"}, {"smiles": "Cc1[nH]c(=O)c2c(ccc3nc(Nc4c(Cl)cccc4Cl)n(C)c32)c1CCO", "melting point": "> 300"}, {"smiles": "COc1cccc(CNC(=O)c2nc3sc(C(=O)O)c(C)c3c(=O)[nH]2)c1", "melting point": "> 300"}, {"smiles": "COC[C@H]1CCCN1NC(=O)Nc1cccc2c1C(=O)c1c-2n[nH]c1-c1ccc(C(=O)N2CCNCC2)s1", "melting point": "> 300"}, {"smiles": "NCc1ccccc1C1CCN(c2cc3c(cc2F)c(=O)c(C(=O)O)cn3C2CC2)C1", "note": "(configuration not stated)", "melting point": "245 to 247"}, {"smiles": "CCc1nc2c(Cl)nc(C)cc2n1Cc1ccccc1", "melting point": "140 to 141"}, {"smiles": "COc1ccc(C=Cc2ccc(OC)c(OC)c2)cc1", "melting point": "131 to 134"}, {"smiles": "COc1ccc2[nH]c3c(c2c1)CCN1CN(C)CCC31", "note": "(configuration not stated)", "melting point": "199 to 200"}, {"smiles": "CCC(C)N1CC(=O)N(C(C)CC)CC1=O", "note": "(configuration not stated)", "melting point": "95.5 to 97.5"}, {"smiles": "OC(Cc1ccc(Cl)cc1Cl)(Cn1cncn1)c1ccc(-c2ccccc2)cc1", "note": "(configuration not stated)", "melting point": 124}, {"smiles": "CCCCCCc1ccc(-n2c(-c3ccc(C)cc3)cc(OC)c2-c2ccc(C)cc2)cc1", "melting point": "128 to 130"}, {"smiles": "COc1c(Cl)cc(F)c(I)c1F", "melting point": "62 to 64"}, {"smiles": "CCOC(=O)C(=O)Nc1c([N+](=O)[O-])sc2c(F)cccc12", "melting point": "148 to 151"}, {"smiles": "Cc1ccc(-c2c(NS(=O)(=O)c3ccc(C(C)(C)C)cc3)nc(NCCOC3CCCCO3)nc2OCCOc2ncc(Br)cn2)cc1", "note": "(configuration not stated)", "melting point": "65 to 69"}, {"smiles": "CCCCCCCCCCCCCCCCCCOc1cc(N(CC(=O)OC)CC(=O)OC)cc(S(C)=O)c1", "note": "(configuration not stated)", "melting point": "80 to 82"}, {"smiles": "C=Cn1cc(C(=O)O)c(=O)c2cc(F)c(-c3ccncc3)nc21", "melting point": "254 to 257"}, {"smiles": "CC=C(C)C1CCC2C3CCC4=CC(=O)CCC4(C)C3CCC12C", "note": "(configuration not stated)", "melting point": "157 to 165"}, {"smiles": "Cc1ccccc1C(CCC(=O)O)Oc1cc(OCc2ccsc2)ccc1-c1nc(C(=O)O)co1", "note": "(racemic)", "melting point": "178 to 179"}, {"smiles": "Cc1ccc(CN(C)C(=O)c2cnn(C)c2C(=O)Nc2ccn3nc(-c4ccccc4)nc3c2)cn1", "melting point": "110 to 150"}, {"smiles": "Oc1ccc(O)c(C(F)(F)F)c1", "melting point": "114 to 115"}, {"smiles": "N#CCCCc1ncccc1NS(=O)(=O)c1ccccc1", "melting point": "80 to 81"}, {"smiles": "CCOC(=O)C1CCc2c(sc3ccc(C)cc23)C1", "note": "(configuration not stated)", "melting point": "68 to 69"}, {"smiles": "BrCc1ccc2ccccc2c1Br", "melting point": "106 to 108"}, {"smiles": "CCCc1nn(-c2ccc(C(F)(F)F)cn2)cc1CCCOc1cccc(CC(=O)O)c1F", "melting point": "109 to 110"}, {"smiles": "CCOC(=O)c1cn(C2CC2)c2c(F)c(N3CC[C@H](NC(=O)OC(C)(C)C)C3)c(F)cc2c1=O", "melting point": "148 to 151"}, {"smiles": "CN(C(=O)COc1nc2cccc(F)c2s1)c1ccccc1", "melting point": 116}, {"smiles": "CC(C)c1cccc(C(C)C)c1NC(=O)N(Cc1ccc(O)cc1)CC1(c2c[nH]cn2)CCCCC1", "melting point": "185 to 188"}, {"smiles": "CCN(C)c1cccc(NC(=O)COC(C)=O)c1C#N", "melting point": "57 to 58"}, {"smiles": "Clc1ccc2nc(-c3ccsc3)c(I)n2n1", "melting point": "203 to 206"}, {"smiles": "NC1=NC(c2ccccc2)(c2cccc(Cc3ccc(F)cc3)c2)C2=NCCCN12", "note": "(configuration not stated)", "melting point": 152}, {"smiles": "Cc1cc(/C=C/C(=O)O)c(C)c([N+](=O)[O-])c1", "melting point": 228}, {"smiles": "C[C@@H]1COC(=O)N1c1nc(-c2ccc(Br)cc2)cs1", "melting point": "189 to 190"}, {"smiles": "CCC(=O)[C@@H](NC(=O)OCc1ccccc1)[C@@H](C)CC", "melting point": "57 to 58"}, {"smiles": "CCOC(=O)c1cn(-c2ccc(C(F)(F)F)cn2)nc1C", "melting point": "88 to 89"}, {"smiles": "CCOC(=O)CNC(=O)c1cn2nc(Cl)ccc2n1", "melting point": "190 to 191"}, {"smiles": "Cc1cccc(NC(=O)NCc2ccc(-c3n[nH]c4c3Cc3cc(CN5CCOCC5)ccc3-4)s2)c1", "melting point": "158 to 161"}, {"smiles": "CCOCc1cc(I)c(=O)[nH]c1C", "melting point": "220 to 222"}, {"smiles": "O=C(O)c1ccc(F)cc1Sc1ccccc1", "melting point": "193 to 200"}, {"smiles": "CC(C)(Cn1c(CCO)nc2c(N)nc3ccccc3c21)NS(C)(=O)=O", "melting point": "209 to 212"}, {"smiles": "Cc1cc(O)c(C)c(C)c1N", "melting point": "153 to 154"}, {"smiles": "COc1ccc(C(=O)Nc2ccccc2)cc1NC(=S)Nc1ccc(C(F)(F)F)cc1", "melting point": "194 to 196"}, {"smiles": "C=CCSc1nnc(Cl)c2ccccc12", "melting point": "76 to 78"}, {"smiles": "O=[N+]([O-])CS(=O)(=O)c1ccc2c(c1)OCO2", "melting point": "131 to 132"}, {"smiles": "CCCNC(=O)Nc1c(C(=O)OCC)cnn1-c1ccccc1", "melting point": "117 to 118"}, {"smiles": "CCN1C(=O)c2cccc(C)c2Oc2ncccc21", "melting point": "74 to 76"}, {"smiles": "CCC(CC)Cn1c(=O)c(=O)[nH]c2cc(Cl)ccc21", "melting point": "253 to 255"}, {"smiles": "c1cc(Nc2nncc3ccccc23)cc(-n2ccnc2)c1", "melting point": "135 to 137"}, {"smiles": "COC(=O)c1c(N)[nH]c2ccccc12", "melting point": 136}, {"smiles": "CCCc1c(OCC2(Sc3ccc(C(=O)CCC(=O)O)cc3)CCCCC2O)ccc(C(C)=O)c1O", "note": "(configuration not stated)", "melting point": "65 to 67"}, {"smiles": "CC(=O)OCCCCCC1CC2=CC(=O)CCC2C2C(F)CC3(C)C(=O)CCC3C12", "note": "(configuration not stated)", "melting point": 78.4}, {"smiles": "O=[N+]([O-])c1oc2ccc(CBr)cc2c1-c1ccccc1", "melting point": "171 to 180"}, {"smiles": "O=[N+]([O-])c1ccc(S(=O)(=O)Nc2cccnc2Nc2ccccc2)cc1", "melting point": "191 to 192"}, {"smiles": "COc1cccc(CC(=O)O)c1OCCCc1cn(-c2ccc(NC(=O)C(C)C)cn2)nc1C(C)C", "melting point": "122 to 123"}, {"smiles": "Oc1c2c(c3nccc4c3c1CCC4)CCCC2", "melting point": 224}, {"smiles": "Clc1ccc2c(c1)C(c1ccccc1)=NCc1ccccc1-2", "melting point": "118 to 119"}, {"smiles": "OCc1ccccc1-c1ccc2nc(-c3ccc(Cl)cc3)cn2c1", "melting point": "164 to 166"}, {"smiles": "CC(=O)N1CCC(CC(O)c2ccc(N(C)C)cc2)CC1", "note": "(configuration not stated)", "melting point": "119 to 120"}, {"smiles": "O=C(Nc1ccc(F)cc1F)Nc1c(-c2ccccc2)c2cc(Cl)ccc2[nH]c1=O", "melting point": "222 to 224"}, {"smiles": "ClCc1cccc2c(-c3ccc(Cl)cc3)nccc12", "melting point": "101 to 102"}, {"smiles": "Cc1ccc(C2=C(c3ccc(S(N)(=O)=O)cc3)CCC2)cn1", "melting point": "108 to 110"}, {"smiles": "COc1ccc(Cc2nc3cc(Cl)cc(Br)c3o2)cc1OC", "melting point": "123 to 124"}, {"smiles": "Cc1oc(Cl)nc1-c1ccc(Cl)cc1Cl", "melting point": 78}, {"smiles": "CONC(=O)CC(C#Cc1ccccc1)c1ccc(OC)c(OC2CCCC2)c1", "note": "(racemic)", "melting point": "111 to 114"}, {"smiles": "COC(=O)c1ccc(OCC=O)cc1", "melting point": "58 to 60"}, {"smiles": "CCC1(C)CN(c2c(F)cc3c(=O)c(C(=O)O)cn(C4CC4)c3c2OC)CCC1N", "note": "(configuration not stated)", "melting point": "152 to 154"}, {"smiles": "N#CCCOc1ccc(Oc2ccccc2)cc1", "melting point": "81 to 83"}, {"smiles": "Oc1ccc(C2(c3ccc(O)cc3)c3ccccc3C(c3ccc(O)cc3)(c3ccc(O)cc3)c3ccccc32)cc1", "melting point": "208 to 209"}, {"smiles": "CSc1nc(N)c(C=O)s1", "melting point": "159 to 162"}, {"smiles": "COc1ccc(C(=O)Nc2ccccc2)cc1NC(=O)CC(=O)OCc1ccccc1", "melting point": "168 to 171"}, {"smiles": "COc1cc(C(=O)c2ccccc2F)ccc1OCc1ccccc1", "melting point": "118 to 120"}, {"smiles": "N#Cc1ccc(O)c(O)c1O", "melting point": 172}, {"smiles": "CCOCc1cc2cc(Cl)ccc2oc1=Nc1ccc(C)cc1", "melting point": "76 to 77"}, {"smiles": "ClC(Cl)=CCOc1cc(Cl)c(OCc2ccc(Cl)nc2)c(Cl)c1", "melting point": 93.3}, {"smiles": "COc1ccc(F)cc1C(C)(C)CC(O)(CN1CCSc2ccccc21)C(F)(F)F", "note": "(configuration not stated)", "melting point": "103 to 104"}, {"smiles": "COCOc1ccc(OCc2ccccc2)c(CBr)c1", "melting point": "55 to 57"}, {"smiles": "CC(=O)N(CC1CC(c2ccc(Cl)cc2)=NO1)c1nnc(C)s1", "note": "(configuration not stated)", "melting point": "195 to 197"}, {"smiles": "CCCCCCCCCCCCSc1nnn[nH]1", "melting point": "85 to 87"}, {"smiles": "O=C(c1ccc(F)cc1)c1ccc2[nH]c(=O)nc(-c3cccc(Cl)c3)c2c1", "melting point": 226}, {"smiles": "O=C(CCCCl)Nc1ccc2c(c1NC(=O)CCCCl)C(=O)c1ccccc1C2=O", "melting point": "154 to 155"}, {"smiles": "O=C1Nc2cc(F)ccc2C1c1ncnc2c1cnn2C1CCCC1", "note": "(configuration not stated)", "melting point": "230 to 233"}, {"smiles": "CC(C)C[C@H](NC(=O)[C@@H](S)Cc1ccccc1)C(=O)O", "melting point": "67 to 71"}]}]}
